# Assays:
# FGFR2 = FGFR2 (Homo sapiens (Human), UniProt P21802); test: Biochemical FGFR2 Caliper assay
# SNU-16 = test: Cell SNU-16 assay; type: cell-based; details: Homo sapiens, SNU-16, SNU-16 cells
# FGFR2, sequence (P21802 22-821): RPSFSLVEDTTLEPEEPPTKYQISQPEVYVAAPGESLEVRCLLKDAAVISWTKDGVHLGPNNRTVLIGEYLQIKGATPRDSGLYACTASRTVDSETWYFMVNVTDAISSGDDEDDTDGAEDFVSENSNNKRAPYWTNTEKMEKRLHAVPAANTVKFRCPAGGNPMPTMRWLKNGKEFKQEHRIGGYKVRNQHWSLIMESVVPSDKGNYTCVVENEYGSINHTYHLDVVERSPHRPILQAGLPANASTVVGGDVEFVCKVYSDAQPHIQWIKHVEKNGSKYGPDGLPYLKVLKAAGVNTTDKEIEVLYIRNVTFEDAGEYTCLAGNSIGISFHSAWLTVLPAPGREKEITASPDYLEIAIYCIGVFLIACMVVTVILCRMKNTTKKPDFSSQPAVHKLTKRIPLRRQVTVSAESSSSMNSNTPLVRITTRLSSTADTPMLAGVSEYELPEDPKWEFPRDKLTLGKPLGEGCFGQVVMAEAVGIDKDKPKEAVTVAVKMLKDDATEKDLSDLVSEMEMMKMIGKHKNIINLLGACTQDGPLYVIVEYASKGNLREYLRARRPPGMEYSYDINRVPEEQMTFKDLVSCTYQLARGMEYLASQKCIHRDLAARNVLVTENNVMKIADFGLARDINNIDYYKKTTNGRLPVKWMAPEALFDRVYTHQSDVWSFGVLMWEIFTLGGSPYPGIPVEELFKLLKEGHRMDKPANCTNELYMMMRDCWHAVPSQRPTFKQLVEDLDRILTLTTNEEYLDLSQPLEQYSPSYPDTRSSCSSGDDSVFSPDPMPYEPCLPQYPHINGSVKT
Compound,IC50 (FGFR2),IC50 (SNU-16)
"C#Cc1ncc(-c2c(C3=CC[C@H](C(=O)N4CCCC4)CC3)c3c(N)ncnc3n2C)c(C)c1F (single isomer, unassigned) [Example 1330]",< 100 nM,≤ 100 nM
"C#Cc1ncc(-c2c(-c3ccc(C(=O)N4CCC[C@H]4C#C)cc3)c3c(N)ncnc3n2C)c(C)c1F (single isomer, unassigned) [Example 1331]",< 100 nM,≤ 100 nM
"C#Cc1ncc(-c2c(-c3ccc(C(=O)N4CCC[C@@H]4C#C)cc3)c3c(N)ncnc3n2C)c(C)c1F (single isomer, unassigned) [Example 1332]",< 100 nM,≤ 100 nM
"C=C(C)C(=O)Nc1ccc(-c2c(C3=CC[C@@]4(CC3)Cc3ccc(C)nc3C4=O)c3c(N)ncnc3n2C)cc1 (single isomer, unassigned) [Example 1366]",1000 to 100000 nM,1000 to 100000 nM
"C=C(C)C(=O)Nc1ccc(-c2c(C3=CC[C@]4(CC3)Cc3ccc(C)nc3C4=O)c3c(N)ncnc3n2C)cc1 (single isomer, unassigned) [Example 1367]",< 100 nM,≤ 100 nM
"C=C(C)C(=O)Nc1cc(C)c(-c2c(C3=CC[C@@H](C(=O)N4CCCC4)CC3)c3c(N)ncnc3n2C)c(C)c1 (single isomer, unassigned) [Example 1484]",1000 to 100000 nM,1000 to 100000 nM
"C=C(C)C(=O)Nc1cc(C)c(-c2c(C3=CC[C@H](C(=O)N4CCCC4)CC3)c3c(N)ncnc3n2C)c(C)c1 (single isomer, unassigned) [Example 1486]",1000 to 100000 nM,1000 to 100000 nM
C=CC(=O)N1CCC(c2c(-c3ccc(N4CCCC4=O)nc3)c3c(N)ncnc3n2C)C1 (centres unmarked) [Example 798],250 to 1000 nM,1000 to 100000 nM
C=CC(=O)N1CCC(c2c(-c3ccc(CC4CCCC4)cc3)c3c(N)ncnc3n2C)C1 (centres unmarked) [Example 799],250 to 1000 nM,250 to 1000 nM
C=CC(=O)N1CCC(c2c(-c3ccc(N4CCCC4)c(C(F)(F)F)c3)c3c(N)ncnc3n2C)C1 (centres unmarked) [Example 800],< 100 nM,≤ 100 nM
C=C(C)C(=O)Nc1ccc(-c2sc3ncnc(N)c3c2-c2ccc(Oc3cccc(C)n3)cc2)cc1 [Example 801],< 100 nM,≤ 100 nM
C=C(C)C(=O)Nc1ccc(-c2oc3ncnc(N)c3c2-c2ccc(Oc3cccc(C)n3)cc2)cc1 [Example 802],1000 to 100000 nM,1000 to 100000 nM
C=CC(=O)N1CCC(c2c(-c3ccc(N4CCNC4=O)cc3)c3c(N)ncnc3n2C)C1 (centres unmarked) [Example 803],1000 to 100000 nM,1000 to 100000 nM
C=CC(=O)N1CCC(c2c(-c3ccc(OC4CC4)nc3)c3c(N)ncnc3n2C)C1 (centres unmarked) [Example 804],100 to 250 nM,1000 to 100000 nM
C=CC(=O)N1CCC(c2c(-c3ccc(N4CCN(C)C4=O)cc3)c3c(N)ncnc3n2C)C1 (centres unmarked) [Example 805],1000 to 100000 nM,250 to 1000 nM
C=CC(=O)N1C[C@H](c2c(-c3ccc(Oc4cccc(C)n4)cc3)c3c(N)ncnc3n2C)[C@@H](O)C1 [Example 806],< 100 nM,100 to 250 nM
C=CC(=O)N1C[C@@H](O)[C@@H](c2c(-c3ccc(Oc4cccc(C)n4)cc3)c3c(N)ncnc3n2C)C1 [Example 807],250 to 1000 nM,250 to 1000 nM
C=C(C)C(=O)Nc1ccc(-c2c(-c3ccc(Oc4cccc(C)n4)cc3)c3c(N)ncnn3c2CO)cc1 [Example 808],100 to 250 nM,100 to 250 nM
C=CC(=O)NC1CCC(c2c(-c3ccc(Oc4cccc(C)n4)cc3)c3c(N)ncnc3n2C)C1 (centres unmarked) [Example 810],< 100 nM,≤ 100 nM
C=CC(=O)N1CCC(c2c(-c3ccc(-n4cc(C)cn4)cc3)c3c(N)ncnc3n2C)C1 (centres unmarked) [Example 811],100 to 250 nM,250 to 1000 nM
C=CC(=O)N1C2COCC1C(c1c(-c3ccc(Oc4cccc(C)n4)cc3)c3c(N)ncnc3n1C)C2 (centres unmarked) [Example 812],< 100 nM,≤ 100 nM
C=CC(=O)N1CC(F)C(c2c(-c3ccc(Oc4cccc(C)n4)cc3)c3c(N)ncnc3n2C)C1 (centres unmarked) [Example 813],250 to 1000 nM,250 to 1000 nM
